This is an account of results in publication PMC6162447, “Engineering Gain-of-Function Analogues of the Spider Venom Peptide HNTX-I, A Potent Blocker of the hNaV1.7 Sodium Channel” (Toxins, 2018).

For this test, the target named is T1, hNaV1.7 (Homo sapiens, UniProt Q15858).
T1 construct: expressed in transfected cells; host or cells: HEK 293
As to the kind of experiment: Whole-cell patch clamp on hNaV1.7 expressed in HEK 293 cells. Type of test: cell-based. The conditions noted are these: for IC50: HEK 293 cells transfected with hNaV1.7 plus human β1 and β2 subunits, room temperature (20–25 °C), 50 ms depolarization to −10 mV from holding −100 mV, mean ± SEM; for Activity on NaV1.7 at a concentration of 10 µM: 10 µM peptide, HEK 293 cells (Figure 2A–C). The protocol: We maintained human embryonic kidney (HEK) 293 cells at 37 °C in a humidified 5% CO2 incubator in Dulbecco’s Modified Eagle’s Medium (DMEM) supplemented with 10% fetal bovine serum (FBS), 2 mM L-glutamine, 100 units/mL penicillin and 100 µg/mL streptomycin. cDNA genes encoding rat Nav1.2 and mouse Nav1.6 were subcloned into the vectors pcDNA3.1, respectively. We subcloned the gene that encodes hNaV1.7 into the vector pcDNA3.1-mod. We transfected the hNaV1.7 channel (3 μg) together with plasmids β1- (1 μg) and β2-eGFP ([…]), which encode the human β1 and β2 subunits, and Nav1.2 and Nav1.6 together with eGFP in HEK 293 cells using Lipofectamine 2000 (Invitrogen, Carlsbad, CA, USA) per the manufacturer’s instructions.
We performed whole-cell recordings using an EPC 10 patch clamp platform (HEKA, Elektronik, Lambrecht, Germany) at room temperature (20–25 °C). We made suction pipettes with access resistance of 2.0–3.0 MΩ from borosilicate glass capillary tubes (VWR micropipettes; VWR Co., West Chester, PA, USA) using a 2-step vertical microelectrode puller (PC-10; Narishige Co., Ltd., Tokyo, Japan) and compensated for voltage errors using 80% serial-resistance compensation. The standard pipette solution contained (in mM): 140 CsCl, 10 NaCl, 1 ethylene glycol-bis (β-aminoethyl ether)-N,N,N′,N′-tetraacetic acid (EGTA), and 10 HEPES (pH 7.4). The bath solution contained (in mM): 140 NaCl, 2 CaCl2, 1 MgCl2, 5 KCl, 20 4-(2-hydroxyethyl)-1-piperazineethanesulfonic acid (HEPES) and 10 glucose (pH 7.4). We purchased all chemicals from Sigma-Aldrich (St. Louis, MO, USA) and dissolved them in water. Data were acquired using PATCHMASTER software version 2x73 (HEKA Elektronik Dr. Schulze GmbH, Lambrecht, Germany). We filtered macroscopic sodium currents at 5 kHz and sampled them at 20 kHz. We acquired voltage clamp recordings 5 min after establishing a whole-cell configuration to allow adequate equilibration between the micropipette solution and the cell interior. We elicited channel current by 50 milliseconds of depolarization potential to −10 mV from the holding voltage of −100 mV.
We analyzed the data using Igor Pro software version 6.10A (WaveMetrics, Lake Oswego, OR, USA), Sigmaplot software version 10 (Sigma, St. Louis, MO, USA), OriginPro software version 8 (OriginLab Corp., Northampton, MA, USA) and Prism software version 5 (GraphPad Software, San Diego, CA, USA). Concentration–response curves were fitted using the following Hill logistic equation:y = fmax − (fmax − fmin)/(1 + (x/IC50)^n)(1) where fmax and fmin respectively represent the channel’s maximum and minimum responses to toxins, fmin was set to 0, x represents toxin concentration and n is an empirical Hill coefficient. All quantitative results are presented as mean ± standard error of the mean (SEM).
Background: The patch-clamp technique gives a direct electrical read-out from membranes.

Bridge positions count the residues as written; N and C are the ends. Peptide text beside a SMILES is read from it.

T1 sequence (O60939 30-215): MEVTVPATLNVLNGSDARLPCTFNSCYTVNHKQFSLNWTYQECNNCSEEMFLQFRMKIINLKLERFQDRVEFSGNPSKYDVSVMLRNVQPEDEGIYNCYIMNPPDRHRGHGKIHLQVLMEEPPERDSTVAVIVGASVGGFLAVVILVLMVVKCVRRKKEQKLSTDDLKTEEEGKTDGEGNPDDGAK
T1 sequence (Q07699 19-218, further chain): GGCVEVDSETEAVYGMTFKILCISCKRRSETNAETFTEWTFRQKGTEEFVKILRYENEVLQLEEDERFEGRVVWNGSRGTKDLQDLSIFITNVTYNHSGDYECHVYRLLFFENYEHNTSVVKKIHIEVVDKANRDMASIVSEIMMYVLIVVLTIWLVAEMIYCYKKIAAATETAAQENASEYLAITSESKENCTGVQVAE
T1 sequence (Q15858 other isoform, or with tags, fused parts or gaps): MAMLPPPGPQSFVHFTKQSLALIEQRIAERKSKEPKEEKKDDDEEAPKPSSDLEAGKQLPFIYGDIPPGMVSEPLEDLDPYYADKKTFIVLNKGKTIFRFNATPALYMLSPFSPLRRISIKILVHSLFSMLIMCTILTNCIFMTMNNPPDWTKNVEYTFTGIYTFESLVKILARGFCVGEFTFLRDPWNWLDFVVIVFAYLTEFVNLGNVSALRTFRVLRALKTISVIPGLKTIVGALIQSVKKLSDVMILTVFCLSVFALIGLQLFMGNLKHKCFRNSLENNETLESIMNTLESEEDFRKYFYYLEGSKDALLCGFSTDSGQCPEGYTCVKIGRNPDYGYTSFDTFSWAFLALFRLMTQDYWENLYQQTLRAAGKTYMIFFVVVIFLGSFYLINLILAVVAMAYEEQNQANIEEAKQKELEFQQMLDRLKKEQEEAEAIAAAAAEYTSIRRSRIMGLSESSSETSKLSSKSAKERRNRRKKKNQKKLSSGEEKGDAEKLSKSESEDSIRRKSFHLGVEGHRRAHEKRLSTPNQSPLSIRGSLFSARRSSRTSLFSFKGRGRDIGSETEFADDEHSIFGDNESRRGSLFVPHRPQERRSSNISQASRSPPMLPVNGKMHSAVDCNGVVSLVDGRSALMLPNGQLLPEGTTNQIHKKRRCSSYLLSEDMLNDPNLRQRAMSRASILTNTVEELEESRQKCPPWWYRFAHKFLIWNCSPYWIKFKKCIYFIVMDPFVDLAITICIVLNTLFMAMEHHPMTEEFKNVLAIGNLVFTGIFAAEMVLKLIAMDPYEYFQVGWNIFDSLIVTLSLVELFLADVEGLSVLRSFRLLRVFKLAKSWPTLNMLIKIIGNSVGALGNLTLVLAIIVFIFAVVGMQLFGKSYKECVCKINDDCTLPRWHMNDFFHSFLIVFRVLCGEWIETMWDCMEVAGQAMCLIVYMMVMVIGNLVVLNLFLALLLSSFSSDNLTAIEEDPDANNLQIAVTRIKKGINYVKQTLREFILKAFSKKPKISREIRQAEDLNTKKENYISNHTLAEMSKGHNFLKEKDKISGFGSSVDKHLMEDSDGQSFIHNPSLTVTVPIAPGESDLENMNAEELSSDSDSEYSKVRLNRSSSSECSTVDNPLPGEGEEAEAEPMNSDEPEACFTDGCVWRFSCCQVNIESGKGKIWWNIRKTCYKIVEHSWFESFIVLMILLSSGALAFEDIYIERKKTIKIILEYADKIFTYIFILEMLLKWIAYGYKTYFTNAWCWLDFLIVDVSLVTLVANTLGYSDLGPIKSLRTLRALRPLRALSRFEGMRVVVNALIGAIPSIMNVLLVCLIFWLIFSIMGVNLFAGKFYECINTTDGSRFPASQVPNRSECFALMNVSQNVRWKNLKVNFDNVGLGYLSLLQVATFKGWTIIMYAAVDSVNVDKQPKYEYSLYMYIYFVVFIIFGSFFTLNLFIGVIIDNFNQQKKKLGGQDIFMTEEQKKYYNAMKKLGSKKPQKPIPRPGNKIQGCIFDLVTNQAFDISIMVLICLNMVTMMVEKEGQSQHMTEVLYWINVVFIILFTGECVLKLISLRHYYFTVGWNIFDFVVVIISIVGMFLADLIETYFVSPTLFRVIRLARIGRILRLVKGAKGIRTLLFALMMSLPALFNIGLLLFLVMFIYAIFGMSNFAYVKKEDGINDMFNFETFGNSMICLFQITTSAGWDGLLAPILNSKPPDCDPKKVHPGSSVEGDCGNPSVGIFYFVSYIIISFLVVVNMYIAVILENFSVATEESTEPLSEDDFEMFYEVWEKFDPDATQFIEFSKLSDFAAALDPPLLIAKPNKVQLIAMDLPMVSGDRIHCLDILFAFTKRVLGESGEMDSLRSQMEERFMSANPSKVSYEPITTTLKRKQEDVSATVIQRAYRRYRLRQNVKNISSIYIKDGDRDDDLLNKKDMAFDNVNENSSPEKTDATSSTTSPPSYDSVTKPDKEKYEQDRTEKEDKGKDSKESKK

In the case of `CC(C)C[C@H](NC(=O)[C@H](CC(C)C)NC(=O)[C@@H](NC(=O)[C@H](CCCCN)NC(=O)[C@@H]1CSSC[C@@H]2NC(=O)[C@H](CCC(=O)O)NC(=O)[C@H](CC(N)=O)NC(=O)[C@H](CCCCN)NC(=O)CNC(=O)[C@@H]3CCCN3C(=O)[C@H](C(C)C)NC(=O)[C@@H]3CSSC[C@H](NC(=O)[C@H](C)NC(=O)[C@H](Cc4ccc(O)cc4)NC(=O)CNC(=O)[C@H](CO)NC(=O)[C@H](CSSC[C@H](NC(=O)[C@@H](N)CCC(=O)O)C(=O)N[C@@H](CCCCN)C(=O)NCC(=O)N[C@@H](Cc4ccccc4)C(=O)NCC(=O)N[C@@H](CCCCN)C(=O)N[C@@H](CO)C(=O)N3)NC2=O)C(=O)N[C@@H](CC(N)=O)C(=O)N[C@@H](CO)C(=O)N[C@@H](CCCNC(=N)N)C(=O)N[C@@H](Cc2c[nH]cn2)C(=O)N[C@@H](CCCCN)C(=O)N[C@@H](Cc2c[nH]c3ccccc23)C(=O)N1)C(C)C)C(=O)O` [D26H] (H-ECKGFGKSCVPGKNECCSGYACNSRHKWCKVLL-OH; disulfide 2-17, 9-22, 16-29), the IC50 (n ≥ 3, SEM) is 1500 ± 93 nM.

Consider `CC(C)C[C@H](NC(=O)[C@H](CC(C)C)NC(=O)[C@@H](NC(=O)[C@H](CCCCN)NC(=O)[C@@H]1CSSC[C@@H]2NC(=O)[C@H](CCC(=O)O)NC(=O)[C@H](CC(N)=O)NC(=O)[C@H](CCCCN)NC(=O)CNC(=O)[C@@H]3CCCN3C(=O)[C@H](C(C)C)NC(=O)[C@@H]3CSSC[C@H](NC(=O)[C@H](C)NC(=O)[C@H](Cc4ccc(O)cc4)NC(=O)CNC(=O)[C@H](CO)NC(=O)[C@H](CSSC[C@H](NC(=O)CN)C(=O)N[C@@H](CCCCN)C(=O)NCC(=O)N[C@@H](Cc4ccccc4)C(=O)NCC(=O)N[C@@H](CCCCN)C(=O)N[C@@H](CO)C(=O)N3)NC2=O)C(=O)N[C@@H](CC(N)=O)C(=O)N[C@@H](CO)C(=O)N[C@@H](CCCNC(=N)N)C(=O)N[C@@H](CC(=O)O)C(=O)N[C@@H](CCCCN)C(=O)N[C@@H](Cc2c[nH]c3ccccc23)C(=O)N1)C(C)C)C(=O)O` [E1G] (H-GCKGFGKSCVPGKNECCSGYACNSRDKWCKVLL-OH; disulfide 2-17, 9-22, 16-29 (inferred); N-terminus and C-terminus assumed), for which the “Activity on NaV1.7 at a concentration of 10 µM” value is given as “negligible activity”. For the setting “n ≥ 3”, the IC50 is over 10000 nM. On to `CC(C)C[C@H](NC(=O)[C@H](CC(C)C)NC(=O)[C@@H](NC(=O)[C@H](CCCCN)NC(=O)[C@@H]1CSSC[C@@H]2NC(=O)[C@H](CCC(=O)O)NC(=O)[C@H](CC(N)=O)NC(=O)[C@H](CCCCN)NC(=O)CNC(=O)[C@@H]3CCCN3C(=O)[C@H](C(C)C)NC(=O)[C@@H]3CSSC[C@H](NC(=O)[C@H](C)NC(=O)[C@H](Cc4ccc(O)cc4)NC(=O)CNC(=O)[C@H](CO)NC(=O)[C@H](CSSC[C@H](NC(=O)CN)C(=O)N[C@@H](CCCCN)C(=O)NCC(=O)N[C@@H](Cc4ccccc4)C(=O)NCC(=O)N[C@@H](CCCCN)C(=O)N[C@@H](CO)C(=O)N3)NC2=O)C(=O)N[C@@H](CO)C(=O)N[C@@H](CO)C(=O)N[C@@H](CCCNC(=N)N)C(=O)N[C@@H](Cc2c[nH]cn2)C(=O)N[C@@H](CCCCN)C(=O)N[C@@H](Cc2c[nH]c3ccccc23)C(=O)N1)C(C)C)C(=O)O` [E1G–N23S–D26H] (H-GCKGFGKSCVPGKNECCSGYACSSRHKWCKVLL-OH; disulfide 2-17, 9-22, 16-29), for which the IC50 (n ≥ 3, SEM) came to 179 ± 24 nM. In the case of `CC(C)C[C@H](NC(=O)[C@H](Cc1c[nH]c2ccccc12)NC(=O)[C@@H](NC(=O)[C@H](CCCCN)NC(=O)[C@@H]1CSSC[C@@H]2NC(=O)[C@H](CCC(=O)O)NC(=O)[C@H](CC(N)=O)NC(=O)[C@H](CCCCN)NC(=O)CNC(=O)[C@@H]3CCCN3C(=O)[C@H](C(C)C)NC(=O)[C@@H]3CSSC[C@H](NC(=O)[C@H](C)NC(=O)[C@H](Cc4ccc(O)cc4)NC(=O)CNC(=O)[C@H](CO)NC(=O)[C@H](CSSC[C@H](NC(=O)CN)C(=O)N[C@@H](CCCCN)C(=O)NCC(=O)N[C@@H](Cc4ccccc4)C(=O)NCC(=O)N[C@@H](CCCCN)C(=O)N[C@@H](CO)C(=O)N3)NC2=O)C(=O)N[C@@H](CO)C(=O)N[C@@H](CO)C(=O)N[C@@H](CCCNC(=N)N)C(=O)N[C@@H](Cc2c[nH]cn2)C(=O)N[C@@H](CCCCN)C(=O)N[C@@H](Cc2c[nH]c3ccccc23)C(=O)N1)C(C)C)C(=O)O` [E1G–N23S–D26H–L32W] (H-GCKGFGKSCVPGKNECCSGYACSSRHKWCKVWL-OH; disulfide 2-17, 9-22, 16-29), the IC50 (n ≥ 3, SEM) worked out at 36 ± 7 nM.

On to `CC(C)C[C@H](NC(=O)[C@H](CC(C)C)NC(=O)[C@@H](NC(=O)[C@H](CCCCN)NC(=O)[C@@H]1CSSC[C@@H]2NC(=O)[C@H](CCC(=O)O)NC(=O)[C@H](CC(N)=O)NC(=O)[C@H](CCCCN)NC(=O)CNC(=O)[C@@H]3CCCN3C(=O)[C@H](C(C)C)NC(=O)[C@@H]3CSSC[C@H](NC(=O)[C@H](C)NC(=O)[C@H](Cc4ccc(O)cc4)NC(=O)CNC(=O)[C@H](CO)NC(=O)[C@H](CSSC[C@H](NC(=O)CN)C(=O)N[C@@H](CCCCN)C(=O)NCC(=O)N[C@@H](Cc4ccccc4)C(=O)NCC(=O)N[C@@H](CCCCN)C(=O)N[C@@H](CO)C(=O)N3)NC2=O)C(=O)N[C@@H](CC(N)=O)C(=O)N[C@@H](CO)C(=O)N[C@@H](CCCCN)C(=O)N[C@@H](Cc2c[nH]cn2)C(=O)N[C@@H](CCCCN)C(=O)N[C@@H](Cc2c[nH]c3ccccc23)C(=O)N1)C(C)C)C(=O)O` [E1G–R25K–D26H] (H-GCKGFGKSCVPGKNECCSGYACNSKHKWCKVLL-OH; disulfide 2-17, 9-22, 16-29), for which the IC50 (n ≥ 3, SEM) came out at 766 ± 29 nM. For `CC(C)C[C@H](NC(=O)[C@H](Cc1c[nH]c2ccccc12)NC(=O)[C@@H](NC(=O)[C@H](CCCCN)NC(=O)[C@@H]1CSSC[C@@H]2NC(=O)[C@H](CCC(=O)O)NC(=O)[C@H](CC(N)=O)NC(=O)[C@H](CCCCN)NC(=O)CNC(=O)[C@@H]3CCCN3C(=O)[C@H](C(C)C)NC(=O)[C@@H]3CSSC[C@H](NC(=O)[C@H](C)NC(=O)[C@H](Cc4ccc(O)cc4)NC(=O)CNC(=O)[C@H](CO)NC(=O)[C@H](CSSC[C@H](NC(=O)CN)C(=O)N[C@@H](CCCCN)C(=O)NCC(=O)N[C@@H](Cc4ccccc4)C(=O)NCC(=O)N[C@@H](CCCCN)C(=O)N[C@@H](CO)C(=O)N3)NC2=O)C(=O)N[C@@H](CC(N)=O)C(=O)N[C@@H](CO)C(=O)N[C@@H](CCCCN)C(=O)N[C@@H](Cc2c[nH]cn2)C(=O)N[C@@H](CCCCN)C(=O)N[C@@H](Cc2c[nH]c3ccccc23)C(=O)N1)C(C)C)C(=O)O` [E1G–R25K–D26H–L32W] (H-GCKGFGKSCVPGKNECCSGYACNSKHKWCKVWL-OH; disulfide 2-17, 9-22, 16-29), the IC50 (n ≥ 3, SEM) amounted to 669 ± 70 nM.

Consider `CC(C)C[C@H](NC(=O)[C@H](Cc1c[nH]c2ccccc12)NC(=O)[C@@H](NC(=O)[C@H](CCCCN)NC(=O)[C@@H]1CSSC[C@@H]2NC(=O)[C@H](CCC(=O)O)NC(=O)[C@H](CC(N)=O)NC(=O)[C@H](CCCCN)NC(=O)CNC(=O)[C@@H]3CCCN3C(=O)[C@H](C(C)C)NC(=O)[C@@H]3CSSC[C@H](NC(=O)[C@H](C)NC(=O)[C@H](Cc4ccc(O)cc4)NC(=O)CNC(=O)[C@H](CO)NC(=O)[C@H](CSSC[C@H](NC(=O)[C@@H](N)CCC(=O)O)C(=O)N[C@@H](CCCCN)C(=O)NCC(=O)N[C@@H](Cc4ccccc4)C(=O)NCC(=O)N[C@@H](CCCCN)C(=O)N[C@@H](CO)C(=O)N3)NC2=O)C(=O)N[C@@H](CC(N)=O)C(=O)N[C@@H](CO)C(=O)N[C@@H](CCCNC(=N)N)C(=O)N[C@@H](CC(=O)O)C(=O)N[C@@H](CCCCN)C(=O)N[C@@H](Cc2c[nH]c3ccccc23)C(=O)N1)C(C)C)C(=O)O` [L32W] (H-ECKGFGKSCVPGKNECCSGYACNSRDKWCKVWL-OH; disulfide 2-17, 9-22, 16-29 (inferred); N-terminus and C-terminus assumed), for which the “Activity on NaV1.7 at a concentration of 10 µM” value is “negligible activity”. Moreover, the IC50 (n ≥ 3) is over 10000 nM.

As usually defined, the IC50 is the point on the concentration scale where inhibition reaches its midpoint.
